Laboratory results taken from patent EP3443956A1, “A COMPOUND INCREASING ENDOCANNABINOIDS CONCENTRATION IN A SUBJECT FOR USE FOR PREVENTING AND/OR TREATING A SOCIAL BEHAVIOR DISORDER” (INSTITUT NATIONAL DE LA SANTE ET DE LA RECHERCHE MEDICALE …, priority 2017, dated 2019).
Where two headings read alike, the source gives them in different places.

Columns and labels:
adult rats = format: in vivo, rat
Experimental: Wistar female rats (Charles River, France) weighing 250-280 g were housed at constant room temperature (20 ± 1°C) and humidity (60%), and exposed to a light cycle of 12 h/day (08:00 a.m. to 08:00 p.m.), with food and water available ad libitum. For mating, pairs of females were placed with single male rats in the late afternoon. Vaginal smears were taken the following morning at 09:00 a.m. The day on which sperm was present was designated as the day 0 of gestation (GD 0).
(§1) Treatment was performed daily with the CB1 R receptor agonist WIN55,212-2 (0.5 mg/kg) or Delta9-Tetrahydrocannabinol (THC, 5 mg/kg) or their respective vehicles from GD 5 to GD 20. WIN55,212-2 was suspended in 5% DMSO, 5% cremophor and saline, and injected s.c. at a volume of 1 ml/kg. Control dams (Sham group) received a similar volume injection of vehicle solution. THC was suspended in 5% Ethanol, 5% cremophor and saline, and injected s.c. at a volume of 1 ml/kg.
(§2) Pups were weaned at 21 days of age. For behavioral and electrophysiological experiments male and female rats were tested at adulthood (postnatal day 90-120).
The test was performed in a sound attenuated chamber under dim light conditions. The testing arena consisted of a Plexiglas cage measuring 45 × 45 cm, with 2 cm of wood shavings covering the floor. Social behavior was assessed as previously described (Trezza et al., 2012).
Briefly, adult rats were individually habituated to the test cage for 5 min (adult rats) on each of the 2 days prior to testing. Before testing, adult animals were socially isolated for 24 h, respectively, to enhance their social motivation and thus facilitate the expression of social behaviors during testing. Drug treatments were counterbalanced so that cage mates were allocated to different treatment groups. […] Behavior was assessed per pair of animals and analyzed by a trained observer who was unaware of treatment condition using the Ethovision XT video tracking software (Noldus, Wageningen, The Netherlands).
The test consisted of placing two similarly treated animals into the test cage for 10 min (adult rats). In rats, a bout of social play behavior starts with one rat soliciting ('pouncing') another animal, by attempting to nose or rub the nape of its neck. The animal that is pounced upon can respond in different ways. If the animal that is pounced upon fully rotates to its dorsal surface, 'pinning' is the result, i.e., one animal lying with its dorsal surface on the floor with the other animal standing over it. From this position, the supine animal can initiate another play bout, by trying to gain access to the other animal's neck. Thus, during social play, pouncing is considered an index of play solicitation, while pinning can be regarded as the terminal component of a single play bout as well as a releaser of a prolonged play bout. Pinning and pouncing frequencies can be easily quantified and they are considered to be the most characteristic parameters of social play behavior in rats. During the social encounter, animals may also display social behaviors not directly associated with play, such as sniffing or grooming the partner's body. A pair of rats was considered as one experimental unit. […]

[1] = test system: eCB-LTD of excitatory synapses onto medium spiny neurons (MSNs); assay: Field potential recordings of eCB-LTD in accumbens slices
[2] = test system: eCB-LTD of excitatory synapses onto layer 5 mPFC pyramidal neurons; assay: Field potential recordings of eCB-LTD in mPFC slices; parameters: species or system rat
Experimental: as §1, §2
Adult male and female rats were anesthetized with isoflurane and killed as previously described (Martin and Manzoni, 2014). The brain was sliced (300 µm) in the coronal plane with a vibratome (Integraslice, Campden Instruments) in a sucrose-based solution at 4°C (in mm as follows: 87 NaCl, 75 sucrose, 25 glucose, 2.5 KCI, 4 MgCl2, 0.5 CaCl2, 23 NaHCO3 and 1.25 NaH2PO4). Immediately after cutting, slices containing the medial prefrontal cortex (PFC) or accumbens were stored for 1 h at 32°C in a low calcium ACSF that contained (in mm) as follows: 130 NaCl, 11 glucose, 2.5 KCI, 2.4 MgCl2, 1.2 CaCl2, 23 NaHCO3, 1.2 NaH2PO4, and were equilibrated with 95% 02/5% CO2 and then at room temperature until the time of recording.
Field potential recordings were made in coronal slices containing the mPFC or the accumbens as previously described (Robbe et al., 2002). During the recording, slices were placed in the recording chamber and superfused at 2 ml/min with either low Ca2+ ACSF for mPFC or normal ACSF for the accumbens. All experiments were done at 32°C or room temperature for mPFC and accumbens, respectively. The superfusion medium contained picrotoxin (100 µM) to block GABA Type A (GABA-A) receptors. All drugs were added at the final concentration to the superfusion medium.
For extracellular field experiments, the recording pipette was filled with ACSF.
Both fEPSP area and amplitude were analyzed. Stimulation was performed with a glass electrode filled with ACSF and the stimulus intensity was adjusted ∼60% of maximal intensity after performing an input-output curve (baseline EPSC amplitudes ranged between 50 and 150 pA). Stimulation frequency was set at 0.1 Hz.
The magnitude of plasticity was calculated 38-40 min after induction as percentage of baseline responses. Statistical analysis of data was performed with Prism (GraphPad Software) using tests indicated in the main text after outlier subtraction. All values are given as mean ± SEM, and statistical significance was set at p < 0.05.

[3] = Sham adult female rats, capsazepine 5 mg/Kg i.p., 30 min before testing

Cc1c(C(=O)c2cccc3ccccc23)c2cccc3c2n1[C@H](CN1CCOCC1)CO3 [WIN55,212-2]
distance travelled during the test (adult rats; rat, in vivo): 3779 ± 228.8 cm | contact with congeners (total frequency of social interaction) (adult rats; rat, in vivo, sc): had less contact with their congeners | time in social interactions (adult rats; rat, in vivo, sc): spent less time in social interactions | total frequency of social interaction (adult rats; rat, in vivo, sc): no difference | total time of social interaction (adult rats; rat, in vivo, sc): no difference | eCB-LTD in accumbens [1]: robust eCB-LTD

N#Cc1cc2[nH]c(=O)c(=O)[nH]c2cc1[N+](=O)[O-] [CNQX]
effect on the field EPSP (fEPSP) ([2]; CNQX 20 µM at the end of the experiments, data not shown): specifically blocked the synaptic component without altering the nonsynaptic component

Oc1cc2c(cc1O)CN(C(=S)NCCc1ccc(Cl)cc1)CCC2 [capsazepine, N-[2-(4-Chlorophenyl)ethyl]-1,3,4,5-tetrahydro-7,8-dihydroxy-2H-2-benzazepine-2-carbothioamide]
frequency of social interaction (adult rats; [3]): reduced | total time of social interaction (adult rats; [3]): reduced | effect on the curating effects of URB597 on social interaction (adult rats; adult rats exposed in utero to WIN55,212-2, capsazepine with URB597 0.1 mg/kg i.p.): did not block the curating effects of URB597 | effect on LTD in mPFC ([2]; Sham adult female rats, slices preincubated for 45 min in 10 µM capsazepine): completely blocked LTD

NC(=O)c1cccc(-c2cccc(OC(=O)NC3CCCCC3)c2)c1 [URB597, (3'-(aminocarbonyl)[1,1'-biphenyl]-3-yl)-cyclohexylcarbamate]
social interaction (social deficits) (adult rats; adult male rats exposed in utero to WIN55,212-2, URB597 0.1 mg/kg i.p., 2 h before testing): ameliorated social deficits | restoration of eCB-LTD in the PFC ([2]; adult male rats exposed in utero to WIN55,212-2, slices incubated with URB597 2 µM for 45-90 min before LTD induction): sufficient to restore eCB-LTD

Cc1c(C(=O)NN2CCCCC2)nn(-c2ccc(Cl)cc2Cl)c1-c1ccc(Cl)cc1 [SR141716, 5-(4-chloro-phenyl)-1-(2,4-dichlorophenyl)-4-methyl-N-1-piperidinyl-1H-pyrazole-3-carboxamide]
effect on the curating actions of URB597 on social interaction (adult rats; adult male rats exposed in utero to WIN55,212-2, SR141716 1 mg/kg i.p. 30 min before URB597 0.1 mg/Kg i.p.): prevented the curating actions of URB597 | effect of the antagonist by itself on social interaction (adult rats; adult rats, SR141716 1 mg/kg i.p.): did not induce effects by itself | effect on LTD in mPFC ([2]; Sham adult male rats, slices preincubated for 45 min in 5 µM SR141716): completely blocked LTD | effect on LTD of evoked EPSPs in mPFC ([2]; adult females exposed in utero to WIN55,212-2, slices preincubated for 45 min in 5 µM SR141716): not mediated by CB1 R receptors | block of the URB597 rescue of eCB-LTD ([2]; adult male rats exposed in utero to WIN55,212-2, URB597 2 µM plus SR141716 5 µM): blocked the URB597 rescue
